Data taken from PubChem BioAssay AID1963868 (Molecular Pharmacology Branch, DTP, NCI, 2024).

Tested on: KRAS PDC tumor spheroids (HUVEC+MSC), viability
Assay: Anticancer human tumor 254851-301-R-J1-PDC patient-derived colon carcinoma cell line growth inhibition [KRAS2]
Settings: for IC50: curve of first compound; for viability, T/C: stronger effect = lower value
How it was run: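 Combination screen of spheroid viability in tumor-cell co-cultures with endothelial (HUVEC) and mesenchymal stem cell stroma. Each agent was tested in half-log dilutions, topping at clinical Cmax or at 10 microM without a known Cmax.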

[1] = second compound 0.1 µM, first compound 0.0316 µM
[2] = second compound 0.1 µM, first compound 0.1 µM
[3] = second compound 0.316 µM, first compound 0.0316 µM
[4] = second compound 0.316 µM, first compound 0.1 µM
[5] = second compound 1 µM, first compound 0.0316 µM
[6] = second compound 1 µM, first compound 0.1 µM
[7] = second compound 3.16 µM, first compound 0.0316 µM
[8] = second compound 3.16 µM, first compound 0.1 µM
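Also: spheroids exposed to compounds for seven days before readout.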
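For viability, T/C in this document: 100% = DMSO vehicle control luminescence of the spheroids.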

Q: Which results are given for `CC(C)n1nc(-c2ccc3oc(N)nc3c2)c2c(N)ncnc21` + COc1cc2nc(C)nc(NC(C)c3cc(N)cc(C(F)(F)F)c3)c2cc1OC1CCOC1?
A: IC50 (second compound 0.1 µM): 20.7 nM; IC50 (second compound 0.316 µM): 21.1 nM; IC50 (second compound 1 µM): 20.7 nM; IC50 (second compound 3.16 µM): 20.1 nM; IC50 (second compound 10 µM): 11.6 nM; viability, T/C (second compound 0.1 µM, first compound 0.000316 µM): 99%; viability, T/C (second compound 0.1 µM, first compound 0.001 µM): 118%; viability, T/C (second compound 0.1 µM, first compound 0.00316 µM): 91.2%; viability, T/C (second compound 0.1 µM, first compound 0.01 µM): 76.2%; viability, T/C [1]: 34.7%; viability, T/C [2]: 21.4%; viability, T/C (second compound 0.316 µM, first compound 0.000316 µM): 102%; viability, T/C (second compound 0.316 µM, first compound 0.001 µM): 100%; viability, T/C (second compound 0.316 µM, first compound 0.00316 µM): 81.7%; viability, T/C (second compound 0.316 µM, first compound 0.01 µM): 70.2%; viability, T/C [3]: 38.7%; viability, T/C [4]: 24%; viability, T/C (second compound 1 µM, first compound 0.000316 µM): 88.7%; viability, T/C (second compound 1 µM, first compound 0.001 µM): 98.6%; viability, T/C (second compound 1 µM, first compound 0.00316 µM): 87.2%; viability, T/C (second compound 1 µM, first compound 0.01 µM): 72.2%; viability, T/C [5]: 37%; viability, T/C [6]: 23.6%; viability, T/C (second compound 3.16 µM, first compound 0.000316 µM): 85.3%; viability, T/C (second compound 3.16 µM, first compound 0.001 µM): 98.2%; viability, T/C (second compound 3.16 µM, first compound 0.00316 µM): 88.2%; viability, T/C (second compound 3.16 µM, first compound 0.01 µM): 76.7%; viability, T/C [7]: 32.6%; viability, T/C [8]: 22.5%; viability, T/C (second compound 10 µM, first compound 0.000316 µM): 86.4%; viability, T/C (second compound 10 µM, first compound 0.001 µM): 97%; viability, T/C (second compound 10 µM, first compound 0.00316 µM): 73.7%; viability, T/C (second compound 10 µM, first compound 0.01 µM): 51.9%; viability, T/C (second compound 10 µM, first compound 0.0316 µM): 34.2%; viability, T/C (second compound 10 µM, first compound 0.1 µM): 21%

Q: Which IC50 (second compound 0.0316 µM) does the source give for `Cn1nccc1Nc1nccc(-c2cc3c(s2)C(C)(C)N(CCN2CCOCC2)C3=O)n1` + C=CC(=O)N1CCN(c2nc(OCC3CCCN3C)nc3c2CCN(c2cccc4cccc(C)c24)C3)CC1CC#N here?
A: 2320 nM

Q: And the IC50 (second compound 0.1 µM)?
A: 3140 nM

Q: And the IC50 (second compound 0.316 µM)?
A: 2540 nM

Q: And the IC50 (second compound 1 µM)?
A: 1660 nM

Q: What about the IC50 (second compound 3.16 µM) of the same compound?
A: 1300 nM

Q: And the viability, T/C (second compound 0.0316 µM, first compound 0.0316 µM)?
A: 99.1%

Q: What about the viability, T/C (second compound 0.0316 µM, first compound 0.1 µM) of the same compound?
A: 112%

Q: And the viability, T/C (second compound 0.0316 µM, first compound 0.316 µM)?
A: 89.8%

Q: What about the viability, T/C (second compound 0.0316 µM, first compound 1 µM) of the same compound?
A: 82%

Q: What about the viability, T/C (second compound 0.0316 µM, first compound 3.16 µM) of the same compound?
A: 38.4%

Q: And the viability, T/C (second compound 0.0316 µM, first compound 10 µM)?
A: 4.17%

Q: And the viability, T/C [1]?
A: 89.9%

Q: And the viability, T/C [2]?
A: 89.9%

Q: What about the viability, T/C (second compound 0.1 µM, first compound 0.316 µM) of the same compound?
A: 95.3%

Q: And the viability, T/C (second compound 0.1 µM, first compound 1 µM)?
A: 94.1%

Q: And the viability, T/C (second compound 0.1 µM, first compound 3.16 µM)?
A: 49.8%

Q: And the viability, T/C (second compound 0.1 µM, first compound 10 µM)?
A: 3.82%

Q: And the viability, T/C [3]?
A: 112%

Q: And the viability, T/C [4]?
A: 92.3%

Q: What about the viability, T/C (second compound 0.316 µM, first compound 0.316 µM) of the same compound?
A: 91.2%

Q: And the viability, T/C (second compound 0.316 µM, first compound 1 µM)?
A: 75.9%

Q: What about the viability, T/C (second compound 0.316 µM, first compound 3.16 µM) of the same compound?
A: 43%

Q: What about the viability, T/C (second compound 0.316 µM, first compound 10 µM) of the same compound?
A: 3.62%

Q: What about the viability, T/C [5] of the same compound?
A: 71.3%

Q: And the viability, T/C [6]?
A: 74.5%

Q: What about the viability, T/C (second compound 1 µM, first compound 0.316 µM) of the same compound?
A: 68.6%

Q: And the viability, T/C (second compound 1 µM, first compound 1 µM)?
A: 66.7%

Q: What about the viability, T/C (second compound 1 µM, first compound 3.16 µM) of the same compound?
A: 29.3%

Q: And the viability, T/C (second compound 1 µM, first compound 10 µM)?
A: 2.36%

Q: What about the viability, T/C [7] of the same compound?
A: 81.9%

Q: What about the viability, T/C [8] of the same compound?
A: 74.3%

Q: And the viability, T/C (second compound 3.16 µM, first compound 0.316 µM)?
A: 63%

Q: What about the viability, T/C (second compound 3.16 µM, first compound 1 µM) of the same compound?
A: 62.4%

Q: What about the viability, T/C (second compound 3.16 µM, first compound 3.16 µM) of the same compound?
A: 11.8%

Q: What about the viability, T/C (second compound 3.16 µM, first compound 10 µM) of the same compound?
A: 0.25%
